{
  "source": "patent US7012072B2",
  "about": "“Pharmaceutical oxaliplatinum preparation for parenteral administration and method for obtaining same” (Debiopharm S.A., priority 2000, dated 2006)",
  "assay_type_in_all_cases": "physicochemical",
  "key": {"[1]": {"experiment": "Preparation of concentrated oxaliplatin solutions in solvent with hydroxylated derivative", "settings": "solvent with sufficient amount of 1,2-propanediol, glycerol, maltitol, sucrose or inositol", "protocol": "One of the co-solvents chosen from 1,2-propanediol, glycerol and maltitol, respectively, is introduced into the receptacle at the same time as or prior to the addition of water to make the volume up to 25 ml, according to the corresponding volume/volume or weight/volume ratios as indicated in the various tables.\nAfter returning to ambient temperature, namely approximately 20° C., a clarifying filtration operation is optionally carried out in order to ensure clarity."}, "[2]": {"experiment": "Wet heat treatment of oxaliplatin solutions in an autoclave, observation after return to ambient temperature", "settings": "for Observation after storage (black precipitate): degassed with argon; for Observatios: appearance of solution: 24 hours after treatment", "excerpt": "The mixtures as obtained by applying the method described in example 1, and according to the relative amounts indicated in table 1, […] well known to a specialist. […]"}, "[3]": {"experiment": "Wet heat sterilization, three successive cycles at 80° C., observation after 72 hours at refrigerator temperature", "settings": "10 mg/ml, 3 cycles 80° C. ± 2, 30 min, 24 h standing at approx. 20° C.", "protocol": "They were then subjected to operations of wet heat sterilization by carrying out three successive cycles of heating at a temperature of 80° C., followed by a return to an ambient temperature of approximately 20° C.\nThe solutions thus treated were kept, before observation, at refrigerator temperature for 72 hours."}, "[4]": {"settings": "10 mg/ml supersaturated, water for injectable preparation, 80° C. ± 2, 30 min"}},
  "data": [
    {"compound": "O=C1[O][Pt]2([NH][C@@H]3CCCC[C@H]3[NH]2)[O]C1=O", "note": "[Oxaliplatin]", "values": [
      {"measurement": "concentration of oxaliplatin obtained in the preparation", "setting": "[1]", "result": "over 7 mg/ml"},
      {"measurement": "Observation after storage", "setting": "[2]; 10 mg/ml supersaturated, water for injectable preparation, no co-solvent, 120° C. ± 2, 90 min", "result": "presence of black precipitate"},
      {"measurement": "Observation after storage: appearance of solution", "setting": "[2]; [4]", "result": "solution has a clear appearance"},
      {"measurement": "Observation after storage: precipitate", "setting": "[2]; [4]", "result": "no presence of precipitate"},
      {"measurement": "Observation after storage (black precipitate)", "setting": "[2]; 10 mg/ml, 1,2-propanediol/water 20/20 (V/V), 110° C. ± 2, 120 min", "result": "presence of"},
      {"measurement": "Observation after storage (black precipitate)", "setting": "[2]; 10 mg/ml, 1,2-propanediol/water 20/20 (V/V), 120° C. ± 2, 150 min", "result": "presence of"},
      {"measurement": "Observatios: appearance of solution", "setting": "[2]; 10 mg/ml, 1,2-propanediol/water 50/50 (V/V), 70° C. ± 2, 30 min", "result": "clear"},
      {"measurement": "Observation after storage (black precipitate)", "setting": "[2]; 10 mg/ml, 85% glycerol/water 20/20 (V/V), 110° C. ± 2, 120 min", "result": "presence of"},
      {"measurement": "Observation after storage (black precipitate)", "setting": "[2]; 10 mg/ml, 85% glycerol/water 20/20 (V/V), 120° C. ± 2, 150 min", "result": "presence of"},
      {"measurement": "Observatios: appearance of solution", "setting": "[2]; 10 mg/ml, 85% glycerol/water 50/50 (V/V), 70° C. ± 2, 30 min", "result": "clear"},
      {"measurement": "Observation after storage (black precipitate)", "setting": "[2]; 10 mg/ml, maltitol/water 50% (m/V), 110° C. ± 2, 120 min", "result": "presence of"},
      {"measurement": "Observation after storage (black precipitate)", "setting": "[2]; 10 mg/ml, maltitol/water 50% (m/V), 120° C. ± 2, 150 min", "result": "presence of"},
      {"measurement": "Observatios: appearance of solution", "setting": "[2]; 10 mg/ml, maltitol/water 50% (m/V), 70° C. ± 2, 30 min", "result": "clear"},
      {"measurement": "Observatios: appearance of solution", "setting": "[2]; 12 mg/ml, maltitol/water 30% (m/V), 80° C. ± 2, 30 min", "result": "clear"},
      {"measurement": "Observations: appearance of solution", "setting": "[3]; 1,2-propanediol/water for injectable preparation 50/50 (V/V)", "result": "clear appearance"},
      {"measurement": "Observations: appearance of solution", "setting": "[3]; 85% glycerol/water for injectable preparation 50/50 (V/V)", "result": "clear appearance"},
      {"measurement": "Observations: appearance of solution", "setting": "[3]; maltitol/water for injectable preparation 50% (m/V)", "result": "clear appearance"}
    ]}
  ]
}
